Test results published in publication PMC9474474, “Determination of pharmacokinetics and tissue distribution of a novel lutetium-labeled PSMA-targeted ligand, ^177Lu-DOTA-PSMA-GUL, in rats by using LC–MS/MS” (Scientific Reports, 2022).

Test: Stability in rat plasma, urine, feces and 12 tissues (LC–MS/MS validation)
Type: in vitro ADME
Settings: for Stability Freeze-thaw: 4 cycles; for Stability Autosampler: 4 °C for 24 h; for Stability Long-term: -70 °C for two weeks; for Stability Short-term: room temperature for 4 h
Procedure: Analytical validation data including stability and process efficiency are shown in Supplementary Tables 3 and 4. […] The process efficiency in each biological matrix is generally consistent (Supplementary Table 4). […] For plasma samples, the dilution integrity was evaluated for a 10- and 20-fold dilution of QC samples at 40,000 ng/mL, which was two times higher than ULOQ, with blank matrix. The accuracy for dilution integrity was 105.56% and 102.21%, while precision was 1.03% and 2.39% for tenfold and 20-fold dilution, respectively (n = 3, each).
Supplementary Table 3. Stability (%) of 175Lu-DOTA-PSMA-GUL in the rat plasma, urine, feces,
Matrix Concentration Short-term Long-term Freeze-thaw Autosampler
(ng/mL) (n=4) (n=4) (n=4) (n=4)

## O=C([O-])CN1CCN(CC(=O)[O-])CCN(CC(=O)[O-])C(Cc2ccc(NC(=S)NCCCC[C@H](NC(=O)N[C@@H](CCC(=O)O)C(=O)O)C(=O)O)cc2)CN(CC(=O)[O-])CC1.[Lu+3] (stereo partly drawn) [^175Lu-DOTA-PSMA-GUL, Lutetium labeled-1,4,7,10-tetraazacyclododecane-1,4,7,10-tetraacetic acid (DOTA)-PSMA-GUL]
Rat brain, 400 ng/mL
  Stability Freeze-thaw: 96.03 ± 3.73%
  Stability Autosampler: 96.57 ± 0.76%
  Stability Long-term: 94.77 ± 3.27%
  Stability Short-term: 92.98 ± 2.86%
Rat brain, 4,000 ng/mL
  Stability Freeze-thaw: 102.05 ± 3.19%
  Stability Autosampler: 90.60 ± 1.22%
  Stability Long-term: 95.22 ± 2.73%
  Stability Short-term: 98.51 ± 2.55%
Rat fat, 400 ng/mL
  Stability Freeze-thaw: 91.54 ± 1.36%
  Stability Autosampler: 95.57 ± 4.47%
  Stability Long-term: 96.21 ± 4.47%
  Stability Short-term: 98.86 ± 3.38%
Rat fat, 4,000 ng/mL
  Stability Freeze-thaw: 99.64 ± 2.85%
  Stability Autosampler: 95.05 ± 0.70%
  Stability Long-term: 94.41 ± 3.10%
  Stability Short-term: 96.74 ± 3.52%
Rat feces, 400 ng/mL
  Stability Freeze-thaw: 104.54 ± 6.86%
  Stability Autosampler: 97.85 ± 3.82%
  Stability Long-term: 103.52 ± 1.25%
  Stability Short-term: 90.69 ± 6.38%
Rat feces, 4,000 ng/mL
  Stability Freeze-thaw: 105.65 ± 2.20%
  Stability Autosampler: 104.03 ± 2.53%
  Stability Long-term: 101.50 ± 1.39%
  Stability Short-term: 104.76 ± 2.40%
Rat heart, 400 ng/mL
  Stability Autosampler: 98.75 ± 4.29%
  Stability Long-term: 93.97 ± 1.45%
  Stability Short-term: 95.08 ± 10.83%
Rat heart, 4,000 ng/mL
  Stability Freeze-thaw: 97.19 ± 8.21%
  Stability Autosampler: 92.56 ± 3.26%
  Stability Long-term: 93.50 ± 2.78%
  Stability Short-term: 91.74 ± 0.93%
Rat kidney, 400 ng/mL
  Stability Freeze-thaw: 94.83 ± 2.49%
  Stability Autosampler: 95.72 ± 4.19%
  Stability Long-term: 95.92 ± 2.97%
  Stability Short-term: 95.45 ± 3.51%
Rat kidney, 4,000 ng/mL
  Stability Freeze-thaw: 94.30 ± 1.02%
  Stability Autosampler: 97.98 ± 2.82%
  Stability Long-term: 94.61 ± 2.50%
  Stability Short-term: 98.14 ± 3.63%
Rat liver, 400 ng/mL
  Stability Freeze-thaw: 95.93 ± 3.91%
  Stability Autosampler: 97.39 ± 3.47%
  Stability Long-term: 97.86 ± 1.87%
  Stability Short-term: 98.94 ± 5.66%
Rat liver, 4,000 ng/mL
  Stability Freeze-thaw: 91.72 ± 2.23%
  Stability Autosampler: 92.47 ± 2.32%
  Stability Long-term: 91.83 ± 1.56%
  Stability Short-term: 91.39 ± 2.47%
Rat lung, 400 ng/mL
  Stability Freeze-thaw: 96.40 ± 1.10%
  Stability Autosampler: 98.84 ± 7.51%
  Stability Long-term: 99.08 ± 2.59%
  Stability Short-term: 98.55 ± 4.32%
Rat lung, 4,000 ng/mL
  Stability Freeze-thaw: 97.55 ± 0.70%
  Stability Autosampler: 102.00 ± 4.06%
  Stability Long-term: 95.79 ± 1.75%
  Stability Short-term: 96.87 ± 1.97%
Rat muscle, 400 ng/mL
  Stability Freeze-thaw: 101.47 ± 2.25%
  Stability Autosampler: 94.93 ± 2.73%
  Stability Long-term: 99.56 ± 2.47%
  Stability Short-term: 100.99 ± 2.76%
Rat muscle, 4,000 ng/mL
  Stability Freeze-thaw: 94.67 ± 0.44%
